The values below come from ChEMBL document CHEMBL1208713, “Coumarins incorporating hydroxy- and chloro-moieties selectively inhibit the transmembrane, tumor-associated carbonic anhydrase isoforms IX and XII over the cytosolic ones I and II” (Bioorg Med Chem Lett, 2010).

The structures appear in SMILES notation.

Test [1] deals with Carbonic anhydrase 9 (Homo sapiens) (UniProt Q16790). The test can be described thus: Inhibition of human CA9 by CO2 hydration assay.
Test [2] has as its target Carbonic anhydrase 1 (Homo sapiens) (UniProt P00915).
Description: Inhibition of human CA1 by CO2 hydration assay
Test [3] addresses Carbonic anhydrase 2 (Homo sapiens) (UniProt P00918).
Description: Inhibition of human CA2 by CO2 hydration assay
The target in test [4] is Carbonic anhydrase 12 (Homo sapiens) (UniProt O43570).
Sequence of Carbonic anhydrase 12 (Homo sapiens) (O43570 whole entry): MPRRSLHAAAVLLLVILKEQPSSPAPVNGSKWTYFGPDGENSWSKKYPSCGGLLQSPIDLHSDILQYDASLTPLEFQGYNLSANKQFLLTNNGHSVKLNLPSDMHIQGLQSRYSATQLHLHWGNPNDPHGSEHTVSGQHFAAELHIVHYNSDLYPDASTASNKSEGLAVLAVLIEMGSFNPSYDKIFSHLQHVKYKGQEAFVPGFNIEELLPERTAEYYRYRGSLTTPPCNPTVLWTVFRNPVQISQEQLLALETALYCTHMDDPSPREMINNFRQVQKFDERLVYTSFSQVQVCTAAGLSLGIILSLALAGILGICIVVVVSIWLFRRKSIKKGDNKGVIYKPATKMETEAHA
Description: Inhibition of human CA12 by CO2 hydration assay

Sequence of Carbonic anhydrase 1 (Homo sapiens) (P00915 2-261 limits assumed): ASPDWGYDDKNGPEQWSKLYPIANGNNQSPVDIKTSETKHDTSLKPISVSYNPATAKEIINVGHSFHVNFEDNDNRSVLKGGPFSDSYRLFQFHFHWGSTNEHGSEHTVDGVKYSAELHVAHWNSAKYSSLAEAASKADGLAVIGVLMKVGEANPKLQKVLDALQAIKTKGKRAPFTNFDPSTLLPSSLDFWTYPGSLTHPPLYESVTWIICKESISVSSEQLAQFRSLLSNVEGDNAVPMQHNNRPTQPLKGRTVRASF

Turning to `O=c1ccc2ccc(O)cc2o1`, the inhibition constant (Ki) in test [1] was found to be 0.482 µM; in test [2] it was 58.4 µM.
As for `O=c1cc(O)c2ccccc2o1`, the Ki in test [1] is 0.418 µM; in test [2], 95 µM; in test [3] it was over 100 µM; in test [4], 6.3 µM.
The like results for `O=c1cc(CCl)c2ccc(O)cc2o1` were, in that order, 0.478 µM, over 100 µM, over 100 µM and 8.02 µM.
For `O=c1cc(CCl)c2ccc(Cl)cc2o1`, the Ki in test [1] was 0.359 µM; in test [2], 72.8 µM; in test [3] it was over 100 µM; in test [4], 0.735 µM.
The like results for `O=c1ccc2cc(O)ccc2o1` were, in that order, 0.198 µM, over 100 µM, over 100 µM and 0.683 µM.
The like results for `O=c1cc(Cl)c2ccccc2o1` were, in that order, 4.92 µM, 86.9 µM, over 100 µM and 7.03 µM.
In the same order, the values of `O=c1oc2ccccc2cc1O` are 0.508 µM, 79.4 µM, over 100 µM and 9.6 µM.
In the case of `O=c1ccc2ccccc2o1`, the inhibitory constant (Ki) in test [1] and in test [4] was over 100 µM throughout.
